Series [1] concerns Cryptococcus neoformans. The series is described as follows: Antifungal activity against Cryptococcus neoformans H99S assessed as inhibition of fungal growth measured after 72 hrs by Plate reader assay. In kind it is functional.
A short description of series [2]: Selectivity ratio of TD50 for human HepG2 cells to MIC for Cryptococcus neoformans H99S. In kind it is toxicity.
A short description of series [3]: Cytotoxicity against human HepG2 cells assessed as cell death measured after 72 hrs by MTT assay. In kind it is cell-based. Particulars: read-out: TD50.
Series [4] can be described thus: Selectivity ratio of TD50 for mouse 3T3 cells to MIC for Cryptococcus neoformans H99S. In kind it is toxicity.
The subject of a further series is Enterococcus faecium. The series is described as follows: Antibacterial activity against Enterococcus faecium ATCC 6569 assessed as inhibition of bacterial growth measured after 24 hrs by Plate reader method. In kind it is functional.
Series [5] has as its system Cryptococcus neoformans. The series is described as follows: Indifferent antifungal activity against Cryptococcus neoformans H99S assessed as fractional inhibitory concentration index incubated for 72 hrs in presence of 0.25 to 16 ug/ml flucytosine by checkerboard microdilution assay. In kind it is functional.
For series [6], the system named is Cryptococcus neoformans. The series is described as follows: Indifferent antifungal activity against Cryptococcus neoformans H99S assessed as fractional inhibitory concentration index incubated for 72 hrs in presence of 0.5 to 32 ug/ml fluconazole by checkerboard microdilution assay. In kind it is functional.
Series [7] can be described thus: Cytotoxicity against mouse 3T3 cells assessed as cell death measured after 72 hrs by MTT assay. In kind it is cell-based. The conditions noted are these: read-out: TD50.
The nature of series [8]: Selectivity ratio of TD50 for human HPL1A cells to MIC for Cryptococcus neoformans H99S. In kind it is toxicity.
Series [9] can be described thus: Stability of compound assessed as trypsin-mediated compound degradation at 2 mg/ml measured after 24 hrs by RP-HPLC method. In kind it is ADME. The conditions noted are these: isolated protein.
Series [10] relates to Cryptococcus neoformans. Kind of series: […] antifungal activity against Cryptococcus neoformans H99S assessed as fractional inhibitory concentration index incubated for 72 hrs in presence of 0.03 to 2 ug/ml Amphotericin B by checkerboard microdilution assay. In kind it is functional.
Series [11] has as its system Cryptococcus neoformans. The series is described as follows: Antifungal activity against Cryptococcus neoformans H99S assessed as dead cells at 12.5 ug/ml measured after 30 mins by time-to-kill assay. Particulars: dose 12.5 µg/ml, 0.5 h. In kind it is functional.
Series [12] deals with Cryptococcus neoformans. The series is described as follows: Antifungal activity against Cryptococcus neoformans H99S assessed as half life for fungal killing at 12.5 ug/ml by Plate reader assay. In kind it is functional, organism-based. The conditions noted are these: dose 12.5 µg/ml.
A further series has as its system Enterococcus faecalis. Kind of series: Antibacterial activity against Enterococcus faecalis ATCC 29212 assessed as inhibition of bacterial growth measured after 24 hrs by Plate reader method. In kind it is functional.
Series [13] can be described thus: Antifungal activity against Cryptococcus gattii R265 ATCC MYA-4093 assessed as inhibition of fungal growth measured after 72 hrs by Plate reader assay. In kind it is functional, Cryptococcus gattii VGI.
A short description of series [14]: Selectivity ratio of MIC for Cryptococcus gattii R272 ATCC MYA-4094 to MIC for Cryptococcus neoformans H99S measured after 72 hrs by Plate reader assay. In kind it is functional.
Series [15] relates to Candida albicans. The series is described as follows: Antifungal activity against Candida albicans ATCC10231 assessed as inhibition of fungal growth measured after 24 hrs by Plate reader assay. In kind it is functional.
Series [16] can be described thus: Antifungal activity against Cryptococcus gattii R272 ATCC MYA-4094 assessed as inhibition of fungal growth measured after 72 hrs by Plate reader assay. In kind it is functional, Cryptococcus gattii VGI.
The test system of series [17] is Cryptococcus neoformans. Kind of series: Fungicidal activity against Cryptococcus neoformans H99S assessed as fungal killing at 12.5 ug/ml measured after drug wash-out. In kind it is functional, organism-based. The conditions noted are these: dose 12.5 µg/ml.
In series [18] the test system is Candida albicans. Kind of series: Antifungal activity against Candida albicans ATCC10231 assessed as inhibition of biofilm formation measured after 24 hrs by fluorescence based plate reader assay. In kind it is functional.
Series [19] is described as follows: Selectivity ratio of MIC for Cryptococcus gattii R265 ATCC MYA-4093 to MIC for Cryptococcus neoformans H99S measured after 72 hrs by Plate reader assay. In kind it is functional.
A further series concerns Erythrocyte. The series is described as follows: Hemolytic activity in human RBC measured after 1 hr by microplate reader method. In kind it is ADME, cell-based.
A further series deals with Escherichia coli. Kind of series: Antibacterial activity against Escherichia coli ATCC 25922 assessed as inhibition of bacterial growth measured after 24 hrs by Plate reader method. In kind it is functional.
For another series, the system named is Pseudomonas aeruginosa. Kind of series: Antibacterial activity against Pseudomonas aeruginosa ATCC 25619 assessed as inhibition of bacterial growth measured after 24 hrs by Plate reader method. In kind it is functional.
Series [20] has as its system Cryptococcus neoformans. Kind of series: Antifungal activity against Cryptococcus neoformans H99S assessed as inhibition of fungal growth preincubated with human serum for 1 hr followed by incubation with fungus and measured after 72 hrs by Plate reader method. In kind it is functional. The conditions noted are these: time 73 hrs.
The nature of series [21]: Selectivity ratio of HC10 for human RBC to MIC for Cryptococcus neoformans H99S. In kind it is toxicity. The conditions noted are these: red blood cells (RBC).
Series [22] is described as follows: Cytotoxicity against human HPL1A cells assessed as cell death measured after 72 hrs by MTT assay. The conditions noted are these: read-out: TD50. In kind it is cell-based.
A short description of series [23]: Protein binding in human serum at 100 ug/ml measured after 24 hrs by RP-HPLC method. Particulars: at 100 µg/mL. In kind it is ADME, cell-free.
The next series concerns Lipid bilayer. The series is described as follows: Induction of membrane disruption in calcein loaded PC:PE:PS:Ergosterol (4:2:1:0.1) liposomes mimicking Cryptococcus neoformans H99S membrane assessed as increase in fluorescence intensity measured after 1 hr by liposome assay.
A further series relates to Staphylococcus aureus. Kind of series: Antibacterial activity against Staphylococcus aureus ATCC 29213 assessed as inhibition of bacterial growth measured after 24 hrs by Plate reader method. In kind it is functional.
A further series relates to Acinetobacter baumannii. Kind of series: Antibacterial activity against Acinetobacter baumannii ATCC 19606 assessed as inhibition of bacterial growth measured after 24 hrs by Plate reader method. The conditions noted are these: ATCC 19606 = CIP 70.34 = JCM 6841. In kind it is functional.
Series [24] can be described thus: Cytotoxicity against human HaCaT cells assessed as cell death measured after 72 hrs by MTT assay. In kind it is cell-based. Particulars: read-out: TD50.
For series [25], the system named is Mycolicibacterium smegmatis. Kind of series: Antibacterial activity against Mycobacterium smegmatis assessed as inhibition of bacterial growth measured after 72 hrs by Plate reader method. In kind it is functional.
For series [26], the system named is Cryptococcus neoformans. Kind of series: Antifungal activity against Cryptococcus neoformans H99S assessed as elimination of viable cells at 12.5 ug/ml measured after 1 hr by Plate reader assay. In kind it is functional. The conditions noted are these: dose 12.5 µg/ml.
A short description of series [27]: Selectivity ratio of TD50 for human HaCaT cells to MIC for Cryptococcus neoformans H99S. In kind it is toxicity.
A further series deals with Klebsiella pneumoniae. Kind of series: Antibacterial activity against Klebsiella pneumoniae ATCC 13883 assessed as inhibition of bacterial growth measured after 24 hrs by Plate reader method. In kind it is functional.
The subject of series [28] is Cryptococcus neoformans. Kind of series: Antifungal activity against Cryptococcus neoformans assessed as assessed as half life for fungal killing. In kind it is functional, organism-based.

Converted amounts (≈) assume the structure as drawn. The source made the active and inactive calls. The rule behind the calls is not given here. Where a SMILES comes first, the peptide text is derived from it. [ ]: non-standard residue; d: D form. N(tridecyl)Gly = CCCCCCCCCCCCCNCC(=O)O; Gly(N-2-aminoethyl) = NCCNCC(=O)O; Gly(N-cHex) = O=C(O)CNC1CCCCC1; Nlys = NCCCCNCC(=O)O; Sar = CNCC(=O)O Bounds are passed on as bounds.

For `CCCCCCCCCCCCCNCC(=O)N(CC(=O)N(C)CC(=O)N(CCN)CC(=O)N(CC(N)=O)C1CCCCC1)C1CCCCC1`, in the series on Cryptococcus neoformans [1], the MIC is 3.13 µg/mL (≈ 4.43 µM). Also, the selectivity ratio in series [2] worked out at 27. The CC50 at 72 h in series [3] was 83 µg/mL (≈ 118 µM).

For `CNCC(=O)N(CC(=O)N(CCCCN)CC(=O)N(CCN)CC(=O)N(CC(N)=O)C1CCCCC1)C1CCCCC1` (H-[Sar][Gly(N-cHex)][Nlys][Gly(N-2-aminoethyl)][Gly(N-cHex)]-NH2), in the series with Cryptococcus neoformans [1], the MIC was above 50 µg/mL. The CC50 at 72 h in [3] was above 200 µg/mL.

As for `CCCCCCCCCCCCCNCC(=O)N(C)CC(=O)N(CCCCN)CC(=O)N(CCN)CC(=O)N(CC(N)=O)C1CCCCC1` (H-[N(tridecyl)Gly][Sar][Nlys][Gly(N-2-aminoethyl)][Gly(N-cHex)]-NH2), in the series on Cryptococcus neoformans [1], the MIC came out at 6.25 µg/mL (≈ 8.99 µM). The CC50 at 72 h in [3] was above 200 µg/mL.

For the compound `OC(Cn1cncn1)(Cn1cncn1)c1ccc(F)cc1F` [FLUCONAZOLE], the MIC with Cryptococcus neoformans [1] turned out to be 2 µg/mL (≈ 6.53 µM).

As for `CCCCCCCCCCCCCNCC(=O)N(CC(=O)N(CCCCN)CC(=O)N(CCN)CC(=O)N(CC(N)=O)C1CCCCC1)C1CCCCC1` (H-[N(tridecyl)Gly][Gly(N-cHex)][Nlys][Gly(N-2-aminoethyl)][Gly(N-cHex)]-NH2), the selectivity ratio in series [4] was 38; in series [8] it was 47; in series [2] it was 120; in series [21] it was 49; in [27], 35. Further, the MIC was found to be 6.25 µg/mL (≈ 8.19 µM) in the series with Enterococcus faecium; 6.25 µg/mL (≈ 8.19 µM) in the series on Enterococcus faecalis; 3.13 µg/mL (≈ 4.1 µM) in series [13]; 1.56 µg/mL (≈ 2.04 µM) in the series on Cryptococcus neoformans [1]; 25 µg/mL (≈ 32.8 µM) in the series with Candida albicans [15]; 3.13 µg/mL (≈ 4.1 µM) in series [16]. The MIC is 100 µg/mL (≈ 131 µM) in the series on Candida albicans [18]; 12.5 µg/mL (≈ 16.4 µM) in the series on Escherichia coli; 100 µg/mL (≈ 131 µM) in the series on Pseudomonas aeruginosa; 3.13 µg/mL (≈ 4.1 µM) in the series with Cryptococcus neoformans [20]; 6.25 µg/mL (≈ 8.19 µM) in the series on Staphylococcus aureus; 25 µg/mL (≈ 32.8 µM) in the series on Acinetobacter baumannii. Further, the MIC worked out at 3.13 µg/mL (≈ 4.1 µM) in series [25] and 100 µg/mL (≈ 131 µM) with Klebsiella pneumoniae. In addition, the “fractional inhibitory concentration index (FICI)” value in the series with Cryptococcus neoformans [5] turned out to be 2; in the series with Cryptococcus neoformans [6] it was 2; in the series with Cryptococcus neoformans [10], 0.75. Moreover, the CC50 at 72 h came out at 59 µg/mL (≈ 77.3 µM) in [7], 74 µg/mL (≈ 97 µM) in series [22], 54 µg/mL (≈ 70.8 µM) in series [24] and 189 µg/mL (≈ 248 µM) in series [3]. In addition, in [9], the Stabilty result is on record as “Stable”. In addition, the Activity is above 50% in the series on Cryptococcus neoformans [11] and 100% with Cryptococcus neoformans [26]. Moreover, in the series with Cryptococcus neoformans [12], the T1/2 is 6.5 min. Besides, the Selectivity ratio in series [14] and in series [19] was 2 in each case. Also, the outcome in the series with Cryptococcus neoformans [17] and with Lipid bilayer was Active. In the series on Erythrocyte, this compound gave an HC10 of 77 µg/mL. Besides, in series [23], the PB result was “Not Active”.

Take `Nc1nc(=O)[nH]cc1F` [FLUCYTOSINE]: the MIC in the series with Cryptococcus neoformans [1] worked out at 2 µg/mL (≈ 15.5 µM).

As for `CCCCCCCCCCCCCNCC(=O)N(CCCCN)CC(=O)N(CC(N)=O)Cc1ccco1`, the T1/2 in the series with Cryptococcus neoformans [28] was 30 min.

With `CCCCCCCCCCCCCNCC(=O)N(CC(=O)N(CCCCN)CC(=O)N(CCN)CC(=O)N(C)CC(N)=O)C1CCCCC1` (H-[N(tridecyl)Gly][Gly(N-cHex)][Nlys][Gly(N-2-aminoethyl)][Sar]-NH2), the MIC in the series on Cryptococcus neoformans [1] was determined as 6.25 µg/mL (≈ 8.99 µM). Besides, the CC50 at 72 h in [3] is above 200 µg/mL.

In the case of `C[C@@H]1[C@H](O)[C@@H](C)/C=C/C=C/C=C/C=C/C=C/C=C/C=C/[C@H](O[C@@H]2O[C@H](C)[C@@H](O)[C@H](N)[C@@H]2O)C[C@@H]2O[C@](O)(C[C@@H](O)C[C@@H](O)[C@H](O)CC[C@@H](O)C[C@@H](O)CC(=O)O[C@H]1C)C[C@H](O)[C@H]2C(=O)O` [AMPHOTERICIN B], the MIC in the series on Cryptococcus neoformans [1] came to 0.25 µg/mL (≈ 0.271 µM). The T1/2 in the series with Cryptococcus neoformans [28] was 240 min.

For `CCCCCCCCCCCCCNCC(=O)N(CC(=O)N(CCCCN)CC(=O)N(C)CC(=O)N(CC(N)=O)C1CCCCC1)C1CCCCC1` (H-[N(tridecyl)Gly][Gly(N-cHex)][Nlys][Sar][Gly(N-cHex)]-NH2), in the series with Cryptococcus neoformans [1], the MIC stood at 3.13 µg/mL (≈ 4.26 µM). In [2], the selectivity ratio was 27. Besides, the CC50 at 72 h in series [3] stood at 84 µg/mL (≈ 114 µM).

These data come from ChEMBL document CHEMBL4837256, “Discovery and Characterization of a Rapidly Fungicidal and Minimally Toxic Peptoid against Cryptococcus neoformans” (ACS Med Chem Lett, 2021).
